The NIST ThermoML archive (doi:10.1021/je7006692)

Assay: relative permittivity at zero frequency (dimensionless)
Settings: Liquid

Cc1ccccc1 [toluene]
Reentrant cavity resonator
Settings | relative permittivity at zero frequency
290.63 K, 100 kPa | 2.40453
290.65 K, 100 kPa | 2.40448
290.69 K, 2170 kPa | 2.41272
290.77 K, 4240 kPa | 2.41409
290.81 K, 6310 kPa | 2.41721
290.83 K, 8370 kPa | 2.4202
290.87 K, 12510 kPa | 2.42629
290.88 K, 16100 kPa | 2.43136
290.9 K, 16650 kPa | 2.4322
291.15 K, 100 kPa | 2.3983
292.65 K, 100 kPa | 2.40346
294.8 K, 100 kPa | 2.39092
310.68 K, 100 kPa | 2.35675
310.79 K, 100 kPa | 2.35646
311.94 K, 100 kPa | 2.35363
314.47 K, 100 kPa | 2.3479
315.68 K, 100 kPa | 2.34035
315.77 K, 100 kPa | 2.33999
315.78 K, 1140 kPa | 2.34185
315.78 K, 8370 kPa | 2.35428
315.79 K, 2170 kPa | 2.34366
315.79 K, 3200 kPa | 2.34545
315.79 K, 4240 kPa | 2.34729
315.79 K, 6310 kPa | 2.35078
315.79 K, 12510 kPa | 2.36095
315.79 K, 16650 kPa | 2.3674
315.79 K, 19410 kPa | 2.37152
320.64 K, 100 kPa | 2.32926
320.66 K, 1140 kPa | 2.33114
324.52 K, 100 kPa | 2.32053
324.53 K, 1140 kPa | 2.32241
324.54 K, 2170 kPa | 2.32435
324.54 K, 3200 kPa | 2.32625
324.54 K, 4240 kPa | 2.32811
324.54 K, 6310 kPa | 2.33179
324.58 K, 8370 kPa | 2.33528
324.61 K, 12510 kPa | 2.34222
324.62 K, 16650 kPa | 2.34897
339.31 K, 100 kPa | 2.28784
339.35 K, 2170 kPa | 2.2919
339.38 K, 4240 kPa | 2.29596
339.38 K, 6310 kPa | 2.29992
339.39 K, 8370 kPa | 2.3038
339.41 K, 12510 kPa | 2.31127
339.41 K, 16650 kPa | 2.31844
357.44 K, 6310 kPa | 2.26156
357.45 K, 2170 kPa | 2.25261
357.45 K, 4240 kPa | 2.25717
357.46 K, 100 kPa | 2.24793
357.52 K, 8370 kPa | 2.26578
357.54 K, 12510 kPa | 2.274
357.55 K, 16650 kPa | 2.28185
390.53 K, 170 kPa | 2.17781
390.53 K, 2170 kPa | 2.18342
390.59 K, 100 kPa | 2.17698
390.59 K, 4240 kPa | 2.18899
390.61 K, 6310 kPa | 2.19431
390.63 K, 8370 kPa | 2.19969
390.65 K, 12510 kPa | 2.20969
390.68 K, 16650 kPa | 2.21925
405.84 K, 2170 kPa | 2.14947
406.3 K, 6310 kPa | 2.16081
406.32 K, 4240 kPa | 2.15467
406.37 K, 8370 kPa | 2.16653
406.54 K, 12510 kPa | 2.17721
406.64 K, 16650 kPa | 2.18731

Settings | relative permittivity at zero frequency
297.37 K, 34905 kPa | 2.443
297.37 K, 41879 kPa | 2.4564
297.38 K, 27906 kPa | 2.4276
297.39 K, 20942 kPa | 2.4127
297.4 K, 13927 kPa | 2.3962
297.41 K, 6919 kPa | 2.3777
